Source: ChEMBL document CHEMBL1201862, “PubChem BioAssay data set” (2004)
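Growth conditions: 96-well plates. Treatment: test compound, 48 hours, 5 concentrations. Analysis: linear interpolation between bracketing concentrations; unreached endpoints set to highest concentration. GI50 is the concentration that inhibits growth by half.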 Activity calls are given as the source filed them. Rule as the data show it: active = GI50 up to about 1.1 µM and inactive = higher.

Columns and labels:
Assay in all cases: DTP human tumour cell line panel, 48 h
DU-145 = system: DU-145
HL-60 = system: HL-60
M14 = system: M14
CCRF-CEM = system: CCRF-CEM
UACC-257 = system: UACC-257
HCT-116 = system: HCT-116
Hs-578T = system: Hs-578T
MDA-MB-435 = system: MDA-MB-435
U-251 = system: U-251
SK-MEL-28 = system: SK-MEL-28
LOX IMVI = system: LOX IMVI
OVCAR-5 = system: OVCAR-5
HOP-92 = system: HOP-92
ACHN = system: ACHN
BT-549 = system: BT-549
NCI-H226 = system: NCI-H226
SR = system: SR
SNB-75 = system: SNB-75
PC-3 = system: PC-3
SN12C = system: SN12C
SW-620 = system: SW-620
HOP-62 = system: HOP-62
MDA-N = system: MDA-N
UACC-62 = system: UACC-62
OVCAR-4 = system: OVCAR-4
Malme-3M = system: Malme-3M
K562 = system: K562
OVCAR-8 = system: OVCAR-8
KM12 = system: KM12
OVCAR-3 = system: OVCAR-3
SF-268 = system: SF-268
TK-10 = system: TK-10
RPMI-8226 = system: RPMI-8226
SK-OV-3 = system: SK-OV-3
SK-MEL-5 = system: SK-MEL-5
T47D = system: T47D
UO-31 = system: UO-31
COLO 205 = system: COLO 205
HCT-15 = system: HCT-15
EKVX = system: EKVX
SK-MEL-2 = system: SK-MEL-2
MDA-MB-231 = system: MDA-MB-231
HCC 2998 = system: HCC 2998
NCI-H522 = system: NCI-H522
SF-539 = system: SF-539
786-0 = system: 786-0
A549 = system: A549
RXF 393 = system: RXF 393
SF-295 = system: SF-295
SNB-19 = system: SNB-19
HT-29 = system: HT-29
CAKI-1 = system: CAKI-1
MOLT-4 = system: MOLT-4
MCF7 = system: MCF7
NCI/ADR-RES = system: NCI/ADR-RES
IGROV-1 = system: IGROV-1
NCI-H23 = system: NCI-H23
NCI-H460 = system: NCI-H460

SMILES: NC(=O)c1ccc[n+](C2=C([N-]S(=O)(=O)c3ccccc3)C(=O)c3ccccc3C2=O)c1
- GI50 (DU-145): 19.1 µM (inactive)
- GI50 (HL-60): 18.5 µM (inactive)
- GI50 (M14): 15.7 µM (inactive)
- GI50 (CCRF-CEM): 42.6 µM (inactive)
- GI50 (UACC-257): 14.2 µM (inactive)
- GI50 (HCT-116): 17.5 µM (inactive)
- GI50 (Hs-578T): 22 µM (inactive)
- GI50 (MDA-MB-435): 4.89 µM (inactive)
- GI50 (U-251): 15.1 µM (inactive)
- GI50 (SK-MEL-28): 16 µM (inactive)
- GI50 (LOX IMVI): 12.9 µM (inactive)
- GI50 (OVCAR-5): 19.1 µM (inactive)
- GI50 (HOP-92): 13.6 µM (inactive)
- GI50 (ACHN): 13.4 µM (inactive)
- GI50 (BT-549): 14.8 µM (inactive)
- GI50 (NCI-H226): 14.7 µM (inactive)
- GI50 (SR): 33.6 µM (inactive)
- GI50 (SNB-75): 14.4 µM (inactive)
- GI50 (PC-3): 15.9 µM (inactive)
- GI50 (SN12C): 16.9 µM (inactive)
- GI50 (SW-620): 16.6 µM (inactive)
- GI50 (HOP-62): 17.9 µM (inactive)
- GI50 (MDA-N): 16.7 µM (inactive)
- GI50 (UACC-62): 17.9 µM (inactive)
- GI50 (OVCAR-4): 1.17 µM (inactive)
- GI50 (Malme-3M): 6.22 µM (inactive)
- GI50 (K562): 64.3 µM (inactive)
- GI50 (OVCAR-8): 14.9 µM (inactive)
- GI50 (KM12): 13.1 µM (inactive)
- GI50 (OVCAR-3): 5.08 µM (inactive)
- GI50 (SF-268): 16.6 µM (inactive)
- GI50 (TK-10): 20.4 µM (inactive)
- GI50 (RPMI-8226): 26.2 µM (inactive)
- GI50 (SK-OV-3): 29.4 µM (inactive)
- GI50 (SK-MEL-5): 5.51 µM (inactive)
- GI50 (T47D): 22.6 µM (inactive)
- GI50 (UO-31): 14.5 µM (inactive)
- GI50 (COLO 205): 12.8 µM (inactive)
- GI50 (HCT-15): 23.3 µM
- GI50 (EKVX): 14.3 µM (inactive)
- GI50 (SK-MEL-2): 12.8 µM (inactive)
- GI50 (MDA-MB-231): 18.1 µM (inactive)
- GI50 (HCC 2998): 10.3 µM (inactive)
- GI50 (NCI-H522): 10.9 µM (inactive)
- GI50 (SF-539): 18 µM (inactive)
- GI50 (786-0): 17.8 µM (inactive)
- GI50 (A549): 19.3 µM (inactive)
- GI50 (RXF 393): 15.8 µM (inactive)
- GI50 (SF-295): 17.5 µM (inactive)
- GI50 (SNB-19): 15.8 µM (inactive)
- GI50 (HT-29): 17.1 µM (inactive)
- GI50 (CAKI-1): 22.1 µM (inactive)
- GI50 (MOLT-4): 25.2 µM (inactive)
- GI50 (MCF7): 14.8 µM (inactive)
- GI50 (NCI/ADR-RES): 15.8 µM (inactive)
- GI50 (IGROV-1): 11.8 µM (inactive)
- GI50 (NCI-H23): 14.9 µM (inactive)
- GI50 (NCI-H460): 17.9 µM (inactive)
